This note sets out measurements from patent publication US20210228713A1, “TLR7 PEPTIDE CONJUGATES” (Apros Therapeutics, Inc., priority 2018, published 2021).

Where two headings read alike, the source gives them in different places. No end group written: not given here.

The assay deals with T1, human TLR7 (hTLR7) (Homo sapiens, UniProt Q9NYK1).
T1 construct: host or cells: HEK293 (HEK-Blue hTLR7)
T1 sequence (Q9NYK1 27-1049): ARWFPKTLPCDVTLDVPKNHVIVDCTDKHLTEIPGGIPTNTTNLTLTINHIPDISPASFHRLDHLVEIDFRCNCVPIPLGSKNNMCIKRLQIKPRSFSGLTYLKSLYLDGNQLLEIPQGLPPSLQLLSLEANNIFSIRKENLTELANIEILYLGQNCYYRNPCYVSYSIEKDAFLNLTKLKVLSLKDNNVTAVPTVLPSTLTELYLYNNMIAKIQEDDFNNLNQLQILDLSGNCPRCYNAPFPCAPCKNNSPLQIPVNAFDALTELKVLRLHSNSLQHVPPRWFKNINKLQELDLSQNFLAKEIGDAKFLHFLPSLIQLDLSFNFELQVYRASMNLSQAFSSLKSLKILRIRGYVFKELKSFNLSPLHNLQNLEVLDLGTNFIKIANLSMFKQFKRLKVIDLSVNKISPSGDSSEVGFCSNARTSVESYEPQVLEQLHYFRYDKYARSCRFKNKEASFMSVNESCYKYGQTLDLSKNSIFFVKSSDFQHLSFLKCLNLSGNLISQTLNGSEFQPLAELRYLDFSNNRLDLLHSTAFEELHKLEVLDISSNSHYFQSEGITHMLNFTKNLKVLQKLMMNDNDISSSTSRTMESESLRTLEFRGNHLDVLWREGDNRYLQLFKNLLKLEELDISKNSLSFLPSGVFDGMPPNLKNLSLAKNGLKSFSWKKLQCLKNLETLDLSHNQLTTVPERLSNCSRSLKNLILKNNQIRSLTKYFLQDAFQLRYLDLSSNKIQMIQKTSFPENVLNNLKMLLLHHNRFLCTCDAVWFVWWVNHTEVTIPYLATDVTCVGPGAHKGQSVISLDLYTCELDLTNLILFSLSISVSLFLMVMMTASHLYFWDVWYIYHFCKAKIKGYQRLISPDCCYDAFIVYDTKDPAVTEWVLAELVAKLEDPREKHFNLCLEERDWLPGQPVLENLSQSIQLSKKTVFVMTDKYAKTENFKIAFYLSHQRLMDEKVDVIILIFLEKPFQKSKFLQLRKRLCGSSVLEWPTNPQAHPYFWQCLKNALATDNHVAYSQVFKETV
Description: HEK-Blue hTLR7 cell assay (NF-kB/AP-1 driven SEAP reporter). Type of assay: cell-based. The source says:
HEK-Blue™ TLR7 cells were purchased from Invivogen (San Diego, Calif.). The following description was taken from the product information sheet.
“HEK-Blue™ hTLR7 cells are designed for studying the stimulation of human TLR7 (hTLR7) by monitoring the activation of NF-kB. HEK-Blue™ hTLR7 cells were obtained by co-transfection of the hTLR7 gene and an optimized secreted embryonic alkaline phosphatase (SEAP) reporter gene into HEK293 cells. The SEAP reporter gene is placed under the control of the IFN-b minimal promoter fused to five NF-kB and AP-1-binding sites. Stimulation with a TLR7 ligand activates NF-kB and AP-1 which induce the production of SEAP, which is detected by the HEK-Blue™ Detection cell culture medium.”
A typical assay protocol involved the following steps:
1. Cells were cultured according to the product information sheet.
2. 10 mM compound stock in DMSO were first diluted to 3 mM and then 3-fold serially diluted using DMSO to afford a 10-pt dilution.
3. 3 μl of the diluted DMSO were added to 57 μl HEK-Blue™ Detection media for a further 20-fold dilution.
4. 10 μl of the diluted compound in assay media were added into 40 μl cell culture (in HEK-Blue™ Detection media) in 384-well plate. Final cell concentration=8,000 cells per well.
5. The plates were incubated at 37° C. in 5% CO2 for 16 h. SEAP was determined using a spectrophotometer at 620-655 nm.

The mark [1] stands for this setting: HEK TLR7 activity of unconjugated (naked) peptides, read-out: EC50, Peptide without Compound 1.

As usually defined, the EC50 is the concentration needed to bring the measured effect to its halfway point. On to `CCCC[C@@H](CCS(C)(=O)=O)Nc1nc(N)nc(C)c1Cc1cc(CC(=O)NCCCC[C@H](NC(C)=O)C(=O)O)ccc1OC` [Compound 1-lysine conjugate], for which the EC50 (HEK-Blue hTLR7 cells, 16 h incubation, SEAP read at 620-655 nm, read-out: HEK-TLR7 EC50) was 0.1 µM.

The molecule DTIWALSVKYGVSVQDIMSWNNLSS [AP7] gave an EC50 greater than 10 µM.

EQLSSVSSFERFEIFPKESSWPNHN [AP11] yielded an EC50 greater than 30 µM.

Molecule ESLKISQAVHAAHAEINEAGREVVG [AP10] gave an EC50 greater than 30 µM.

Regarding LGRLMYDMYPHFMPTNLGPSEKRVW [AP8], the EC50 under setting [1] is greater than 30 µM.

Take LLTRILTIPQSLDSWWTSLNFLGGS [AP9]: the EC50 under setting [1] is greater than 30 µM.

On to NRFVSIFASGPSQKIQLVNNNGSWH [AP5], for which the EC50 under setting [1] is greater than 30 µM.

Regarding TLTCGFADLMGYIPLVGAPLGGAAR [AP3], the EC50 under setting [1] was greater than 30 µM.
